# How the values were obtained:
# Assay type in all cases: functional
# Cyperus difformis [1] = assay: Herbicidal activity against Cyperus difformis assessed as killing at 10 g/a at 25 degC measured after 3 weeks
# [2] = system: Schoenoplectiella juncoides; assay: Herbicidal activity against Schoenoplectiella juncoides assessed as killing at 10 g/a at 25 degC measured after 3 weeks
# [3] = Herbicidal activity against annual broad-leaf weeds assessed as killing at 10 g/a at 25 degC measured after 3 weeks
# Pontederia vaginalis [4] = assay: Herbicidal activity against Monochoria vaginalis assessed as killing at 10 g/a at 25 degC measured after 3 weeks
# Echinochloa oryzicola [5] = assay: Herbicidal activity against Echinochloa oryzicola assessed as killing at 10 g/a at 25 degC measured after 3 weeks
# [6] = system: Schoenoplectiella juncoides; assay: Herbicidal activity against Schoenoplectiella juncoides assessed as killing at 1 g/a at 25 degC measured after 3 weeks
# Echinochloa oryzicola [7] = assay: Herbicidal activity against Echinochloa oryzicola assessed as killing at 1 g/a at 25 degC measured after 3 weeks
# Cyperus difformis [8] = assay: Herbicidal activity against Cyperus difformis assessed as killing at 1 g/a at 25 degC measured after 3 weeks
# Pontederia vaginalis [9] = assay: Herbicidal activity against Monochoria vaginalis assessed as killing at 1 g/a at 25 degC measured after 3 weeks
# [10] = Herbicidal activity against annual broad-leaf weeds assessed as killing at 1 g/a at 25 degC measured after 3 weeks
SMILES,Activity (Cyperus difformis [1]) [%],Activity [2] [%],Activity [3] [%],Activity (Pontederia vaginalis [4]) [%],Activity (Echinochloa oryzicola [5]) [%],Activity [6] [%],Activity (Echinochloa oryzicola [7]) [%],Activity (Cyperus difformis [8]) [%],Activity (Pontederia vaginalis [9]) [%],Activity [10] [%]
COCCN(C(=O)CCl)C(=C(C)C)c1cccc2ccccc12,80,60,60,60,100,,,,,
CCOC(=O)C(CC)N(C(=O)CCl)C(=C(C)C)c1ccccc1 (centres undefined),40,60,80,40,80,,,,,
COCCN(C(=O)CCl)C(=C(C)C)c1ccc(C)cc1,100,100,100,100,100,80,80,100,60,80
COCCN(C(=O)CCl)C(=C(C)C)c1ccccc1OC,80,100,,100,100,0,0,0,0,0
COCCN(C(=O)CCl)C(=C(C)C)c1cccc(Oc2ccccc2)c1,100,60,100,100,100,60,100,80,0,40
COCCN(C(=O)CCl)C(=C(C)C)c1ccc(Cl)cc1,100,100,100,100,100,80,100,100,100,100
CC=C(c1ccccc1)N(CCOC)C(=O)CCl,100,100,100,100,100,0,40,60,0,0
CC(C)=C(c1ccccc1)N(CCCOC(C)C)C(=O)CCl,100,100,100,100,100,,,,,
COC(=O)C(C)N(C(=O)CCl)C(=C(C)C)c1ccccc1 (centres undefined),80,100,80,80,100,,,,,
COCCN(C(=O)CCl)C(=C(C)C)c1cccc(Oc2ccc(Cl)cc2)c1,100,80,100,100,100,,,,,
CSCCN(C(=O)CCl)C(=C(C)C)c1ccccc1,0,20,0,0,60,,,,,
COCCN(C(=O)CCl)C(=C(C)C)c1ccc(C(C)(C)C)cc1,100,100,100,100,100,60,80,60,60,80
C=CCOCC(C)N(C(=O)CCl)C(=C(C)C)c1ccccc1 (centres undefined),100,100,100,100,100,60,40,60,40,100
CCOCCCN(C(=O)CCl)C(=C(C)C)c1ccccc1,100,100,100,100,100,40,80,60,0,40
COCCN(C(=O)CCl)C(=C1CCCCC1)c1ccccc1,100,100,80,100,100,0,20,0,0,60
C=C(c1ccccc1)N(CCOC)C(=O)CCl,80,60,80,40,100,,,,,
COCCN(C(=O)CCl)C(=C(C)C)c1ccc(C)cc1C,100,100,80,100,100,80,60,80,0,0
CCCCOCN(C(=O)CCl)c1c(CC)cccc1CC [BUTACHLOR],100,100,100,100,100,,,,,

SMILES,Activity (Cyperus difformis [1]) [%],Activity [2] [%],Activity [3] [%],Activity (Pontederia vaginalis [4]) [%],Activity (Echinochloa oryzicola [5]) [%],Activity [6] [%],Activity (Echinochloa oryzicola [7]) [%],Activity (Cyperus difformis [8]) [%],Activity (Pontederia vaginalis [9]) [%],Activity [10] [%]
COCCN(C(=O)CCl)C(=C(C)C)c1cc(C)ccc1C,100,100,100,100,100,80,100,80,40,20
COCCN(C(=O)CCl)C(=C(C)C)c1cccs1,100,100,100,100,100,100,100,100,100,0
COCCN(C(=O)CCl)C(=C(C)C)c1cccc(Cl)c1,100,100,100,100,100,80,80,80,60,80
CC(C)=C(c1ccccc1)N(CCOC/C=C/c1ccccc1)C(=O)CCl,0,40,0,0,20,,,,,
COCCN(C(=O)CCl)C(=C(C)C)c1ccc(OC)c(OC)c1,100,100,100,100,100,60,80,80,60,
CCOC(=O)CN(C(=O)CCl)C(=C(C)C)c1ccccc1,80,40,80,40,100,,,,,
CC(C)=C(c1ccccc1)N(CCOCC(F)(F)F)C(=O)CCl,100,80,60,60,100,,,,,
CCCCCOCCN(C(=O)CCl)C(=C(C)C)c1ccccc1,80,60,80,0,80,,,,,
COCCN(C(=O)CCl)C(=C(C)C)c1ccco1,100,100,100,100,100,40,100,20,0,
COC=C(c1ccccc1)N(CCOC)C(=O)CCl,60,40,0,0,100,,,,,
CCOC(CN(C(=O)CCl)C(=C(C)C)c1ccccc1)OCC,100,100,100,100,100,0,0,40,0,
CCCCC=C(c1ccccc1)N(CCOC)C(=O)CCl,80,100,80,100,80,,,,,
COCCN(C(=O)CCl)C(=C(C)C)c1cc(C(C)C)ccc1C,100,100,100,100,100,0,60,0,0,
C/C=C/COCCN(C(=O)CCl)C(=C(C)C)c1ccccc1,100,100,80,100,100,,,,,
CCCOCCN(C(=O)CCl)C(=C(C)C)c1ccccc1,100,100,100,100,100,80,100,100,100,
CCOC(=O)C(C)N(C(=O)CCl)C(=C(C)C)c1ccccc1 (centres undefined),100,100,100,100,100,,,,,
COCCN(C(=O)CCl)C(=C(C)C)c1ccc(C)o1,100,100,100,100,100,,,,,

# Reference: ChEMBL document CHEMBL3046648, “Herbicidally Active N-(1-Arylethenyl)-2-chloroacetamides Bearing an Alkyloxyalkyl Moiety” (1991)
